# Measured values from patent publication US8026359B2, “Fungicidal heterocyclic amines” (E.I. du Pont de Nemours and Company, priority 2007, dated 2011).
# What was measured:
# Format in all cases: in vivo
# Septoria nodorum = experiment: Test C: wheat glume blotch, preventive spray on wheat seedlings; details: 200 ppm, 100 = 100% disease control, 0 = no control relative to controls; for pest or weed control at 200 ppm: Parastagonospora nodorum, 216 h, read-out: Test C disease control rating
# Source text: (§1) General protocol for preparing test suspensions for Tests A-R: The test compounds were first dissolved in acetone in an amount equal to 3% of the final volume and then suspended at the desired concentration (in ppm) in acetone and purified water (50/50 mix) containing 250 ppm of the surfactant Trem® 014 (polyhydric alcohol esters). The resulting test suspensions were then used in tests A-R. In Tests A-M, compounds were sprayed as a 200 ppm test suspension (equivalent to a rate of 500 g/ha) or as a 40 ppm test suspension to the point of runoff on the test plants. In Tests N-R, compounds were sprayed as a 100 g/ha test suspension (equivalent to a rate of 100 ppm) on the test plants at an application volume of 1000 L/ha. The test suspension was sprayed to the point of run-off on wheat seedlings.
# [1] = system: Puccinia recondita f. sp. tritici; experiment: Test B: wheat leaf rust, preventive spray on wheat seedlings; details: 200 ppm, 100 = 100% disease control, 0 = no control relative to controls; for pest or weed control at 200 ppm: Puccinia recondita, 192 h, read-out: Test B disease control rating
# Source text: as §1
# Fusarium graminearum = experiment: whole plant or invertebrate; details: for Test E disease control rating: 200 ppm, 100 = 100% disease control, 0 = no control relative to controls; for pest or weed control at 200 ppm: Fusarium graminearum, in Triticum aestivum, 192 h, read-out: Test E disease control rating
# [2] = system: Erysiphe graminis f. sp. tritici; experiment: Test A: wheat powdery mildew, preventive spray on wheat seedlings; details: 200 ppm, 100 = 100% disease control, 0 = no control relative to controls; for pest or weed control at 200 ppm: Blumeria graminis, 192 h, read-out: Test A disease control rating
# Source text: as §1
# Septoria tritici = experiment: Test D: wheat leaf blotch, preventive spray on wheat seedlings; details: 200 ppm, 100 = 100% disease control, 0 = no control relative to controls; for pest or weed control at 200 ppm: Zymoseptoria tritici, 504 h, read-out: Test D disease control rating
# Source text: as §1
# Botrytis cinerea = experiment: Test F: tomato Botrytis, preventive spray on tomato seedlings; details: 200 ppm, 100 = 100% disease control, 0 = no control relative to controls; for pest or weed control at 200 ppm: Botrytis cinerea, 120 h, read-out: Test F disease control rating
# Source text: as §1, with “tomato” for “wheat”
# [3] = system: Colletotrichum orbiculare; experiment: Test I: cucumber Colletotrichum anthracnose, preventive spray on cucumber seedlings; details: 100 = 100% disease control, 0 = no control relative to controls; for Test I disease control rating: 200 ppm; for pest or weed control at 200 ppm: Colletotrichum orbiculare, 144 h, read-out: Test I disease control rating
# Source text: as §1, with “cucumber” for “wheat”
compound,measurement,setting,value
Clc1cccc(Nc2cc(-c3ccnc(N[C@H]4CCOC4)n3)ccn2)c1 [Compound 72],Test C disease control rating,Septoria nodorum,95%
same,Test B disease control rating,[1],80%
same,Test E disease control rating,Fusarium graminearum,0%
same,Test A disease control rating,[2],0%
same,Test D disease control rating,Septoria tritici,11%
same,Test F disease control rating,Botrytis cinerea,0%
same,Test I disease control rating,[3],0%
Fc1cccc(Nc2cc(-c3ccnc(NC4CCOC4)n3)ccn2)c1 (stereo not shown) [Compound 74],Test C disease control rating,Septoria nodorum,99%
same,Test B disease control rating,[1],94%
same,Test E disease control rating,Fusarium graminearum,0%
same,Test A disease control rating,[2],0%
same,Test D disease control rating,Septoria tritici,72%
same,Test F disease control rating,Botrytis cinerea,48%
same,Test I disease control rating,[3],17%
Fc1cccc(Nc2cc(-c3ccnc(NC4CCCOC4)n3)ccn2)c1 (stereo not shown) [Compound 75],Test C disease control rating,Septoria nodorum,89%
same,Test B disease control rating,[1],83%
same,Test E disease control rating,Fusarium graminearum,0%
same,Test A disease control rating,[2],0%
same,Test D disease control rating,Septoria tritici,28%
same,Test F disease control rating,Botrytis cinerea,90%
same,Test I disease control rating,[3],9%
"COCC(C)Nc1nccc(-c2ccnc(Nc3c(C)cccc3Cl)c2)n1 (stereo not shown) [Compound 76, 4-[2-[(2-chloro-6-methylphenyl)amino]-4-pyridinyl]-N-(2-methoxy-1-methylethyl)-2-pyrimidinamine]",pest or weed control at 200 ppm,Septoria nodorum,99%
same,pest or weed control at 200 ppm,[1],99%
same,pest or weed control at 200 ppm,Fusarium graminearum,93%
same,pest or weed control at 200 ppm,[2],36%
same,pest or weed control at 200 ppm,Septoria tritici,87%
same,pest or weed control at 200 ppm,Botrytis cinerea,97%
same,pest or weed control at 200 ppm,[3],72%
COCC(C)Nc1nccc(-c2ccnc(Nc3c(C)cccc3C)c2)n1 (stereo not shown) [Compound 77],Test C disease control rating,Septoria nodorum,99%
same,Test B disease control rating,[1],99%
same,Test E disease control rating,Fusarium graminearum,92%
same,Test A disease control rating,[2],95%
same,Test D disease control rating,Septoria tritici,61%
same,Test F disease control rating,Botrytis cinerea,88%
same,Test I disease control rating,[3],96%
COCC(C)Nc1nccc(-c2ccnc(Nc3c(Cl)cccc3Cl)c2)n1 (stereo not shown) [Compound 78],Test C disease control rating,Septoria nodorum,99%
same,Test B disease control rating,[1],99%
same,Test E disease control rating,Fusarium graminearum,0%
same,Test A disease control rating,[2],39%
same,Test D disease control rating,Septoria tritici,60%
same,Test F disease control rating,Botrytis cinerea,93%
same,Test I disease control rating,[3],98%
COCC(C)Nc1nccc(-c2ccnc(Nc3c(F)cccc3Cl)c2)n1 (stereo not shown) [Compound 79],Test C disease control rating,Septoria nodorum,99%
same,Test B disease control rating,[1],99%
same,Test E disease control rating,Fusarium graminearum,0%
same,Test A disease control rating,[2],0%
same,Test D disease control rating,Septoria tritici,5%
same,Test F disease control rating,Botrytis cinerea,94%
same,Test I disease control rating,[3],96%
"Cc1cccc(Cl)c1Nc1cc(-c2ccnc(NC3CCOCC3)n2)ccn1 [Compound 80, 4-[2-[(2-chloro-6-methylphenyl)amino]-4-pyridinyl]-N-(tetrahydro-2H-pyran-4-yl)-2-pyrimidinamine]",pest or weed control at 200 ppm,Septoria nodorum,99%
same,pest or weed control at 200 ppm,[1],100%
same,pest or weed control at 200 ppm,Fusarium graminearum,98%
same,pest or weed control at 200 ppm,[2],86%
same,pest or weed control at 200 ppm,Septoria tritici,93%
same,pest or weed control at 200 ppm,Botrytis cinerea,99%
same,pest or weed control at 200 ppm,[3],98%
"Fc1cccc(Nc2cc(-c3ccnc(NCC4CCOC4)n3)ccn2)c1 (stereo not shown) [Compound 82, 4-[2-[(3-fluorophenyl)amino]-4-pyridinyl]-N-[(tetrahydro-3-furanyl)methyl]-2-pyrimidinamine]",pest or weed control at 200 ppm,Septoria nodorum,91%
same,pest or weed control at 200 ppm,[1],98%
same,pest or weed control at 200 ppm,Fusarium graminearum,0%
same,pest or weed control at 200 ppm,[2],0%
same,pest or weed control at 200 ppm,Septoria tritici,68%
same,pest or weed control at 200 ppm,Botrytis cinerea,0%
same,pest or weed control at 200 ppm,[3],29%
"Fc1cccc(Nc2cc(-c3ccnc(NCC4CCCO4)n3)ccn2)c1 (stereo not shown) [Compound 83, 4-[2-[(3-fluorophenyl)amino]-4-pyridinyl]-N-[(tetrahydro-2-furanyl)methyl]-2-pyrimidinamine]",pest or weed control at 200 ppm,Septoria nodorum,99%
same,pest or weed control at 200 ppm,[1],95%
same,pest or weed control at 200 ppm,Fusarium graminearum,0%
same,pest or weed control at 200 ppm,[2],0%
same,pest or weed control at 200 ppm,Septoria tritici,92%
same,pest or weed control at 200 ppm,Botrytis cinerea,53%
same,pest or weed control at 200 ppm,[3],0%
"COCCC(C)Nc1nccc(-c2ccnc(Nc3cccc(F)c3)c2)n1 (stereo not shown) [Compound 84, 4-[2-[(3-fluorophenyl)amino]-4-pyridinyl]-N-(3-methoxy-1-methylpropyl)-2-pyrimidinamine]",pest or weed control at 200 ppm,Septoria nodorum,99%
same,pest or weed control at 200 ppm,[1],91%
same,pest or weed control at 200 ppm,Fusarium graminearum,0%
same,pest or weed control at 200 ppm,[2],28%
same,pest or weed control at 200 ppm,Septoria tritici,59%
same,pest or weed control at 200 ppm,Botrytis cinerea,99%
same,pest or weed control at 200 ppm,[3],0%
COCC(C)Nc1nccc(-c2ccnc(Nc3c(C)cccc3OC)c2)n1 (stereo not shown) [Compound 85],Test C disease control rating,Septoria nodorum,99%
same,Test B disease control rating,[1],94%
same,Test E disease control rating,Fusarium graminearum,0%
same,Test A disease control rating,[2],56%
same,Test D disease control rating,Septoria tritici,0%
same,Test F disease control rating,Botrytis cinerea,93%
same,Test I disease control rating,[3],96%
COCC(C)Nc1nccc(-c2ccnc(Nc3c(C)ccc4ccccc34)c2)n1 (stereo not shown) [Compound 86],Test C disease control rating,Septoria nodorum,94%
same,Test B disease control rating,[1],55%
same,Test E disease control rating,Fusarium graminearum,0%
same,Test A disease control rating,[2],27%
same,Test D disease control rating,Septoria tritici,0%
same,Test F disease control rating,Botrytis cinerea,96%
same,Test I disease control rating,[3],0%
COCC(C)Nc1nccc(-c2ccnc(Nc3c(C)cc(C)cc3Cl)c2)n1 (stereo not shown) [Compound 87],Test C disease control rating,Septoria nodorum,100%
same,Test B disease control rating,[1],95%
same,Test E disease control rating,Fusarium graminearum,0%
same,Test A disease control rating,[2],87%
same,Test D disease control rating,Septoria tritici,49%
same,Test F disease control rating,Botrytis cinerea,96%
same,Test I disease control rating,[3],88%
COc1cccc(C)c1Nc1cc(-c2ccnc(NC3CCOCC3)n2)ccn1 [Compound 88],Test C disease control rating,Septoria nodorum,97%
same,Test B disease control rating,[1],100%
same,Test E disease control rating,Fusarium graminearum,91%
same,Test A disease control rating,[2],99%
same,Test D disease control rating,Septoria tritici,0%
same,Test F disease control rating,Botrytis cinerea,0%
same,Test I disease control rating,[3],0%
Cc1ccc2ccccc2c1Nc1cc(-c2ccnc(NC3CCOCC3)n2)ccn1 [Compound 89],Test C disease control rating,Septoria nodorum,100%
same,Test B disease control rating,[1],95%
same,Test E disease control rating,Fusarium graminearum,89%
same,Test A disease control rating,[2],74%
same,Test D disease control rating,Septoria tritici,0%
same,Test F disease control rating,Botrytis cinerea,99%
same,Test I disease control rating,[3],0%
COCC(C)Nc1nccc(-c2ccnc(Nc3cc(F)ccc3C)c2)n1 (stereo not shown) [Compound 91],Test C disease control rating,Septoria nodorum,94%
same,Test B disease control rating,[1],99%
same,Test E disease control rating,Fusarium graminearum,19%
same,Test A disease control rating,[2],97%
same,Test D disease control rating,Septoria tritici,7%
same,Test F disease control rating,Botrytis cinerea,98%
same,Test I disease control rating,[3],0%
COCC(C)Nc1nccc(-c2ccnc(Nc3c(C)ccc(Cl)c3C)c2)n1 (stereo not shown) [Compound 92],Test C disease control rating,Septoria nodorum,100%
same,Test B disease control rating,[1],94%
same,Test E disease control rating,Fusarium graminearum,0%
same,Test A disease control rating,[2],91%
same,Test D disease control rating,Septoria tritici,65%
same,Test F disease control rating,Botrytis cinerea,99%
same,Test I disease control rating,[3],0%
COCC(C)Nc1nccc(-c2ccnc(Nc3c(C)cc(Cl)cc3Cl)c2)n1 (stereo not shown) [Compound 93],Test C disease control rating,Septoria nodorum,100%
same,Test B disease control rating,[1],99%
same,Test E disease control rating,Fusarium graminearum,66%
same,Test A disease control rating,[2],84%
same,Test D disease control rating,Septoria tritici,78%
same,Test F disease control rating,Botrytis cinerea,98%
same,Test I disease control rating,[3],0%
